Common to all, as to assay type: biochemical
One assay addresses T1, CDK5/p35 (Homo sapiens, UniProt Q00535).
T1 construct: purchased Invitrogen PV3000
Briefly: Z'-LYTE kinase assay CDK5/p35. The conditions noted are these: read-out: Kinase inhibition, IC50 CDK5/p35. How it is done: (§1) Kinase assays. The compounds from the example above were tested for their ability to inhibit kinases. Recombinant human CDK2/cyclinA (PV3267), CDK1/cyclinB (PV3292), CDK5/p35 (PV3000) and Aurora A (PV3612) were purchased from Invitrogen (Carlsbad, Calif., USA). Kinase dosage and Z′-LYTE™ substrate for each kinase assay is as follows: CDK2/cyclinA-8 ng/reaction, Ser/Thr 12 Peptide; CDK1/cyclinB-0.8 ng/reaction, Ser/Thr 12 Peptide, CDK5/p35-0.8 ng/reaction, Ser/Thr 12 Peptide, and Aurora A-16 ng/reaction, Ser/Thr 1 Peptide. All enzymatic assays were performed using Z′-LYTE™ Kinase Assay Kits and were carried out following protocols provided by Invitrogen. To prepare stock solutions, compounds were dissolved at 10 mM in 100% DMSO and stored at 4° C. in amber glass vials. Enzyme reactions were initiated by adding recombinant enzyme and Z′-LYTE™ Ser/Thr peptide substrate and ATP mixture to 384-well plates containing diluted test compounds. Kinase and corresponding peptide substrate were incubated for 1 hr at room temperature in the presence of varying amounts of test compound with reaction buffer (20 μM ATP, […] [pH 7.5], 5 mM MgCl2, 0.5 mM EGTA, 0.005% Brij-35). Development buffer was added and incubated for another one hour at room temperature. Reactions were terminated by addition of stop buffer, and fluorescence emission intensity ratio 445 nm/520 nm (excited at 400 nm) was quantified by VICTOR-3 Multilabel Reader (Perkin-Elmer, Waltham, Mass., USA). Phosphorylation was calculated from the emission ratio. IC50 was determined using Sigmoid curve-fitting software Origin 6.0 (MicroCal, LLC, Northampton, Mass., USA).

A further assay deals with T2, Aurora A (Homo sapiens, UniProt O14965).
T2 construct: purchased Invitrogen PV3612
T2 sequence (O14965 1-403): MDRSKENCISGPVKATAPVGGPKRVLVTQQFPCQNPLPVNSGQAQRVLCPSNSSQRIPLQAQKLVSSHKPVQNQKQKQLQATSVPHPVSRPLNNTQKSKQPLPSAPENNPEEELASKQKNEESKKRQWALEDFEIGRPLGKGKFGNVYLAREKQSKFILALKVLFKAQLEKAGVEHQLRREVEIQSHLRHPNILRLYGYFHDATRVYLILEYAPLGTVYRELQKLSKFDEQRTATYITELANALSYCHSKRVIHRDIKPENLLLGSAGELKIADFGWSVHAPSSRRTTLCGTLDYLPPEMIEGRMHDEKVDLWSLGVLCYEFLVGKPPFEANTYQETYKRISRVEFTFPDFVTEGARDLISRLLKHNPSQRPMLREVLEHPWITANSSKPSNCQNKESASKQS
Description: Z'-LYTE kinase assay Aurora A. As to conditions: read-out: Kinase inhibition, IC50 Aurora A. How it is done:
as §1

The target in a further assay is T3, CDK1/cyclinB (Homo sapiens, UniProt P06493).
T3 construct: purchased Invitrogen PV3292
Description: Z'-LYTE kinase assay CDK1/cyclinB. As to conditions: read-out: Kinase inhibition, IC50 CDK1B. The protocol:
as §1

The next assay concerns the target Aurora B (Homo sapiens, UniProt Q96GD4). Description: Kinase assay Aurora B (Table I). As to conditions: read-out: Kinase inhibition, IC50 Aurora B. The protocol:
[The source words this procedure for another target and reports this target under the same test.] as §1

The target of a further assay is T4, CDK2/cyclinA (Homo sapiens, UniProt P24941).
T4 construct: purchased Invitrogen PV3267
Briefly: Z'-LYTE kinase assay CDK2/cyclinA. The conditions noted are these: read-out: Kinase inhibition, IC50 CDK2A. The protocol:
as §1

The next assay has as its target CDK9T1 (Homo sapiens, UniProt P50750). Briefly: Kinase assay CDK9T1 (Table I). The conditions noted are these: read-out: Kinase inhibition, IC50 CDK9T1. How it is done: [The source words this procedure for another target and reports this target under the same test.] as §1

SMILES strings stand for the structures. Some results are limits rather than exact numbers.

T1 sequence (Q00535 whole entry): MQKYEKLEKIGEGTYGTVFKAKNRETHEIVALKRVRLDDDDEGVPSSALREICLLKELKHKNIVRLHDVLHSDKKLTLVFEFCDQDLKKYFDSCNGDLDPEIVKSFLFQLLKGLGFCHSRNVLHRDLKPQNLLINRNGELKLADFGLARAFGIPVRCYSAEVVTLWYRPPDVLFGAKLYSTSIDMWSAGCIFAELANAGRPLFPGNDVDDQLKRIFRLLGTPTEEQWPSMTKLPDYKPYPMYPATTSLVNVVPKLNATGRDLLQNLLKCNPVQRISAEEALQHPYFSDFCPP
T1 sequence (Q15078 whole entry partner): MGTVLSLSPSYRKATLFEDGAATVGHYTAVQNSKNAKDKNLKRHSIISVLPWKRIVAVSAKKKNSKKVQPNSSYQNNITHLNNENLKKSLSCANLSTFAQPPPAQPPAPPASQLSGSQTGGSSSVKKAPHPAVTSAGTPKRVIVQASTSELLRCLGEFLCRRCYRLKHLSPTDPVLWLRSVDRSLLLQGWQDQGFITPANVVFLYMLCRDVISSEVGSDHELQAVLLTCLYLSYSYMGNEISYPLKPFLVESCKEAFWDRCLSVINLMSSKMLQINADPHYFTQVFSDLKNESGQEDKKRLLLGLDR
CDK9T1, sequence (P50750 whole entry): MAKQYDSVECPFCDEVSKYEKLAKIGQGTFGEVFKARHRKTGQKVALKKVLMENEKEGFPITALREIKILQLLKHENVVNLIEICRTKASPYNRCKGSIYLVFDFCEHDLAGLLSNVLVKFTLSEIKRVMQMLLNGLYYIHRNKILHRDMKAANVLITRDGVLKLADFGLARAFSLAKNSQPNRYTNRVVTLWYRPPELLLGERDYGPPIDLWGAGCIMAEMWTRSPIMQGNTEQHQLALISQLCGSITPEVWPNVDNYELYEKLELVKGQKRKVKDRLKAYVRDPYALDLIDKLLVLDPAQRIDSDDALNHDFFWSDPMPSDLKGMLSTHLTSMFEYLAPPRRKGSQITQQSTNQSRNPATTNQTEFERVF
CDK9T1, sequence (O60563 whole entry partner): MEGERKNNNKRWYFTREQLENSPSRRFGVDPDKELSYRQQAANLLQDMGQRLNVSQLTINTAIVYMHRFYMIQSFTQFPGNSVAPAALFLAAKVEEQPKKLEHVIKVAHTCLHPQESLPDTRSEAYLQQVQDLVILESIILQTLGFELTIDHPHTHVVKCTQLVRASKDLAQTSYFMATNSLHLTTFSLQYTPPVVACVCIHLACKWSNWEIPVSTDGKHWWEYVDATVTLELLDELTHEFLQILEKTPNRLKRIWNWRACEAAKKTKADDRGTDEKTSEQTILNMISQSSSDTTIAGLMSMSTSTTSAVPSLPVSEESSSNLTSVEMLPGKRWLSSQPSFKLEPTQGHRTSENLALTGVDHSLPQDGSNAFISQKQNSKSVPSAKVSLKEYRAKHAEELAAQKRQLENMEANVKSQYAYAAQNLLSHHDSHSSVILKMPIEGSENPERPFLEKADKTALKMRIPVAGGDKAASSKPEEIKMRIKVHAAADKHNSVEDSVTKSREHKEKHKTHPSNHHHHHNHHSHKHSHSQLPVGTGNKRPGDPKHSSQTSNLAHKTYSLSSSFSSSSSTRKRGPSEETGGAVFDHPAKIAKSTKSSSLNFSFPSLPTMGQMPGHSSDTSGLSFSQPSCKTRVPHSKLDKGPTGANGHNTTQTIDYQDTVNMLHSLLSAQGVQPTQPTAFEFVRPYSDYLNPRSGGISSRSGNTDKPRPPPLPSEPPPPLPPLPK
Aurora B, sequence (Q96GD4 whole entry): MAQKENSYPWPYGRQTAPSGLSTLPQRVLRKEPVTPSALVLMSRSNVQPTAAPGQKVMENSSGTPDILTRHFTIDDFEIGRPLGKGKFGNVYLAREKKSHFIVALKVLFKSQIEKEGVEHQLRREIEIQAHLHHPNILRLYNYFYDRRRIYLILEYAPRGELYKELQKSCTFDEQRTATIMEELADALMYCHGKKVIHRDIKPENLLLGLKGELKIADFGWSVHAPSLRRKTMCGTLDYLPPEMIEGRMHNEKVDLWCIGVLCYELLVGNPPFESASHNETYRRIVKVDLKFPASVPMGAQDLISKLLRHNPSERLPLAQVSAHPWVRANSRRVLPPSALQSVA
T3 sequence (P06493 whole entry): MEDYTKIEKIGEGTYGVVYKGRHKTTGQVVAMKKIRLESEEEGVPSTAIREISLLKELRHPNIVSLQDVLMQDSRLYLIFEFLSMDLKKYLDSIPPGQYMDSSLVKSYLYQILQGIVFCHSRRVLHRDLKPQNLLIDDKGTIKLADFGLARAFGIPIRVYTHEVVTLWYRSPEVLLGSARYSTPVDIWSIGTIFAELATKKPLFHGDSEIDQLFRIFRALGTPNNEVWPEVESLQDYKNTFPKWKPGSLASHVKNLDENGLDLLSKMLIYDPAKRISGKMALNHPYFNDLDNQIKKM
T3 sequence (P14635 whole entry partner): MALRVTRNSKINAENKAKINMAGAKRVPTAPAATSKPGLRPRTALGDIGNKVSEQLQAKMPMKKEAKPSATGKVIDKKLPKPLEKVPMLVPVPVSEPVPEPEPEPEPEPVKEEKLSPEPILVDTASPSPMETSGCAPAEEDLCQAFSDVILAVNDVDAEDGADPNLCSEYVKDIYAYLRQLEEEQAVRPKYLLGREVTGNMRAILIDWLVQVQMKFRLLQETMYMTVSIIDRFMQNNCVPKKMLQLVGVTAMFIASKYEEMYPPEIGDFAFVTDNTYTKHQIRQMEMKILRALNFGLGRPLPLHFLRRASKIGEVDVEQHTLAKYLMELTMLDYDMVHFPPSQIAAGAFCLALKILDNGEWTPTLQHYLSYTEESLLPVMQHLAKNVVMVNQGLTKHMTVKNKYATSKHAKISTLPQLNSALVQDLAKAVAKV

For the molecule `Cc1cc(O)ccc1Nc1nccc(-c2cn(C)c3ccccc23)n1` [Compound 4, 3-Methyl-4-[4-(1-methyl-1H-indol-3-yl)-pyrimidin-2-ylamino]-phenol], the IC50 at CDK5/p35 is more than 10000 nM; at Aurora A it was more than 10000 nM; at CDK1/cyclinB, more than 10000 nM; on Aurora B, more than 10000 nM; at CDK2/cyclinA, 1770 nM.
As to `CCn1cc(-c2ccnc(Nc3ccc(O)cc3)n2)c2ccccc21` [Compound 6, 4-[4-(1-Ethyl-1H-indol-3-yl)-pyrimidin-2-ylamino]-phenol], the IC50 at CDK5/p35 came to 522 nM; at Aurora A, 1050 nM; at CDK1/cyclinB it was 1210 nM; on CDK9T1, 26 nM; on Aurora B, 470 nM; on CDK2/cyclinA, 3 nM.
For `CCn1cc(-c2ccnc(Nc3cccc(O)c3)n2)c2ccnc(Cl)c21` [Compound 72, 3-(4-(7-Chloro-1-ethyl-1H-pyrrolo[2,3-c]pyridin-3-yl)pyrimidin-2-ylamino)phenol], the IC50 is 100 nM at CDK5/p35; 800 nM at Aurora A; 90 nM at CDK1/cyclinB; 79 nM on CDK9T1; 930 nM at Aurora B; 4.3 nM on CDK2/cyclinA.
As for `Oc1cccc(Nc2nccc(-c3cn(Cc4ccccc4)c4ccccc34)n2)c1` [Compound 11, 3-[4-(1-Benzyl-1H-indol-3-yl)-pyrimidin-2-ylamino]-phenol], the IC50 on CDK5/p35 is more than 10000 nM; on Aurora A, 4670 nM; at CDK1/cyclinB it was 4820 nM; on CDK9T1, 1170 nM; on Aurora B, more than 10000 nM; at CDK2/cyclinA, 4050 nM.
Regarding `CCCn1cc(-c2ccnc(Nc3cccc(C(=O)N4CCN(C)CC4)c3)n2)c2cccnc21` [Compound 34, (4-Methylpiperazin-1-yl)(3-(4-(1-propyl-1H-pyrrolo[2,3-b]pyridin-3-yl)pyrimidin-2-ylamino)phenyl)methanone], the IC50 at CDK5/p35 was 620 nM; at Aurora A it was more than 10000 nM; on CDK1/cyclinB, 1570 nM; at CDK9T1, 350 nM; on Aurora B, more than 10000 nM; on CDK2/cyclinA, 1340 nM.
Consider `Oc1ccc(Nc2nccc(-c3cn(Cc4ccccc4)c4ccccc34)n2)cc1` [Compound 10, 4-[4-(1-Benzyl-1H-indol-3-yl)-pyrimidin-2-ylamino]-phenol], for which the IC50 at CDK5/p35 came to 4370 nM; on Aurora A, 4220 nM; at CDK1/cyclinB, 2360 nM; on CDK9T1 it was 670 nM; at CDK2/cyclinA, 1170 nM.
For `CCn1cc(-c2ccnc(Nc3ccc(O)cc3)n2)c2ccnc(Cl)c21` [Compound 70, 4-(4-(7-Chloro-1-ethyl-1H-pyrrolo[2,3-c]pyridin-3-yl)pyrimidin-2-ylamino)phenol], the IC50 is 350 nM at CDK5/p35; 2460 nM on Aurora A; 190 nM at CDK1/cyclinB; 95 nM at CDK9T1; more than 10000 nM on Aurora B; 16 nM on CDK2/cyclinA.
Take `Cc1cc(O)cc(C)c1Nc1nccc(-c2cn(C)c3ccccc23)n1` [Compound 5, 3,5-Dimethyl-4-[4-(1-methyl-1H-indol-3-yl)-pyrimidin-2-ylamino]-phenol]: the IC50 was more than 10000 nM at CDK5/p35; more than 10000 nM on Aurora A; more than 10000 nM on CDK1/cyclinB; more than 10000 nM on Aurora B; not below 100000 nM on CDK2/cyclinA.
Regarding `CCn1cc(-c2ccnc(Nc3cccc([N+](=O)[O-])c3)n2)c2cccnc21` [Compound 14, 4-(1-Ethyl-1H-pyrrolo[2,3-b]pyridin-3-yl)-N-(3-nitrophenyl)pyrimidin-2-amine], the IC50 at CDK5/p35 was more than 10000 nM; at Aurora A, 1340 nM; on CDK1/cyclinB, more than 10000 nM; on CDK9T1, 790 nM; at Aurora B, more than 10000 nM; on CDK2/cyclinA, 1070 nM.
Take `CCn1cc(-c2ccnc(Nc3ccc(O)cc3)n2)c2cccnc21` [Compound 12, 4-(4-(1-Ethyl-1H-pyrrolo[2,3-b]pyridin-3-yl)pyrimidin-2-ylamino)phenol]: the IC50 at CDK5/p35 was 5540 nM; on Aurora A, 270 nM; at CDK1/cyclinB, 4110 nM; on CDK9T1, more than 10000 nM; on Aurora B, 750 nM; on CDK2/cyclinA, 172 nM.
Turning to `CCCn1cc(-c2ccnc(Nc3ccc(S(N)(=O)=O)cc3)n2)c2cccnc21` [Compound 23, 4-(4-(1-Propyl-1H-pyrrolo[2,3-b]pyridin-3-yl)pyrimidin-2-ylamino)benzenesulfonamide], the IC50 at CDK5/p35 worked out at 100 nM; at Aurora A, 4900 nM; at CDK1/cyclinB, 30 nM; at CDK9T1 it was 52 nM; at Aurora B, 5800 nM; at CDK2/cyclinA it was 10 nM.
In the case of `CCn1cc(-c2ccnc(Nc3cccc(O)c3)n2)c2cccnc21` [Compound 13, 3-(4-(1-Ethyl-1H-pyrrolo[2,3-b]pyridin-3-yl)pyrimidin-2-ylamino)phenol], the IC50 on CDK5/p35 turned out to be 1960 nM; on Aurora A it was 710 nM; on CDK1/cyclinB, 1180 nM; on CDK9T1 it was 450 nM; at Aurora B, 2050 nM; on CDK2/cyclinA, 61 nM.
With `Cn1cc(-c2ccnc(Nc3ccc(O)cc3Cl)n2)c2ccccc21` [Compound 3, 3-Chloro-4-(4-(1-methyl-1H-indol-3-yl)pyrimidin-2-ylamino)phenol], the IC50 on CDK5/p35 is more than 10000 nM; at Aurora A, more than 10000 nM; on CDK1/cyclinB it was more than 10000 nM; on CDK9T1, more than 10000 nM; on Aurora B, more than 10000 nM; on CDK2/cyclinA, 7530 nM.
For the molecule `CCn1cc(-c2ccnc(Nc3c(C)cc(O)cc3C)n2)c2ccccc21` [Compound 9, 4-[4-(1-Ethyl-1H-indol-3-yl)-pyrimidin-2-ylamino]-3,5-dimethyl-phenol], the IC50 on CDK5/p35 is more than 10000 nM; on Aurora A it was more than 10000 nM; at CDK1/cyclinB, more than 10000 nM; at CDK9T1, more than 10000 nM; on Aurora B, more than 10000 nM; at CDK2/cyclinA, more than 100000 nM.
Turning to `CCn1cc(-c2ccnc(Nc3cccc(O)c3)n2)c2ccccc21` [Compound 7, 3-[4-(1-Ethyl-1H-indol-3-yl)-pyrimidin-2-ylamino]-phenol], the IC50 on CDK5/p35 was 375 nM; at Aurora A, 5840 nM; at CDK1/cyclinB it was 1340 nM; at CDK9T1 it was 29 nM; on Aurora B, 1010 nM; on CDK2/cyclinA, 2 nM.
For `CCn1cc(-c2ccnc(Nc3ccc(O)cc3C)n2)c2ccccc21` [Compound 8, 4-[4-(1-Ethyl-1H-indol-3-yl)-pyrimidin-2-ylamino]-3-methyl-phenol], the IC50 on CDK5/p35 was more than 10000 nM; on Aurora A, more than 10000 nM; at CDK1/cyclinB it was 8950 nM; on CDK9T1 it was more than 10000 nM; at Aurora B, more than 10000 nM; at CDK2/cyclinA, 411 nM.

The record behind these values is patent US8309550B2, “Kinase inhibitors and their use as pharmaceutical agents” (Shanghai Genomics, Inc., priority 2011, dated 2012).
